# Data: patent publication US12521356B2, “Compositions and methods for treating pain, inflammation, infection, malaria, and sepsis” (Duke University, priority 2018, dated 2026)
# Read-outs that look alike come from different tables or passages of the source.
# Tests used:
# ALX = molecular target: T1, ALX (Homo sapiens, UniProt P25090); experiment: Ca2+ imaging (Fura-2AM) in HEK293 cells transfected with ALX cDNA; type: cell-based; details: HEK293 cells expressing ALX
# T1 construct: host or cells: HEK293 flip-in cells
# T1 sequence (P25090 1-351): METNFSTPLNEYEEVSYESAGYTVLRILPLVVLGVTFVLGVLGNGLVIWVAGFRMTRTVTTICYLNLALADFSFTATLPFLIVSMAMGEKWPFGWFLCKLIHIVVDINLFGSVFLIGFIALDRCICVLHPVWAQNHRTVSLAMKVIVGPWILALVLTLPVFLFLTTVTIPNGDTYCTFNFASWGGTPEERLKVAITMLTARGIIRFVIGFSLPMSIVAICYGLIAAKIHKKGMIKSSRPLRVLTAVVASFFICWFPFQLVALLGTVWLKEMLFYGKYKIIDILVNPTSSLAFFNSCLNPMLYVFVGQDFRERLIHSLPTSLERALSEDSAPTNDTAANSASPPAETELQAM
# Source text: (§1) FIG. 10A-FIG. 10C. Characterization of intracellular Ca^2+ changes in HEK293 cells expressing ChemR23, GPR32, and ALX. Ca^2+ imaging with Fura-2AM indicator showing iCa^2+ levels in HEK293 cells transfected with ChemR23 (FIG. 10A), GPR32 (FIG. 10B), and ALX (FIG. 10C) cDNAs. Note that NPD1 fails to elicit iCa^2+ increase in HEK293 cells expressing ChemR23, GPR32, and ALX. […] ATP is included as a positive control. *P<0.05, compared with baseline n=44˜97 cells from 3 cultures. All the data are expressed as mean±s.e.m.
# (§2) HEK cell culture and transfection. HEK293 flip-in cell line was purchased from Duke Cell Culture Facility. Cells were cultured in high glucose (4.5 g/L) Dulbecco's Modified Eagle's Medium containing 10% (v/v) fetal bovine serum (Gibco). Transfection (2 μg cDNA) was performed with Lonza electroporation (Lonza) at 70% confluency and the transfected cells were cultured in the same growth medium for 48 h before use. The hGPR37-V5 pLenti304 plasmids were obtained from DNASU (Tempe, AZ), and hGPR32, hChemR23 and hALX pcDNA3 plasmids were provided by Dr. Serhan from Harvard Medical School, Boston.
# (§3) Calcium imaging. HEK 293 cells, with or without transfection of Gpr37, GPR32, ChemR23 or ALX1 cDNA, were loaded with 5 μM Fura-2AM (Invitrogen) for 1 hour and then were resuspended in normal external buffer (140 NaCl, 5 KCl, 2 CaCl2, 2 MgCl2, 10 HEPES, in mM, titrated to pH 7.4 with NaOH) or external Ca^2+-free buffer (140 NaCl, 2 MgCl2, 5 EGTA, 10 HEPES, in mM, titrated to pH 7.4 with NaOH). Peritoneal macrophages, collected from WT and Gpr37 KO mice, were loaded with 5 μM […] (Invitrogen) for 1 hour and then were resuspended in normal external buffer. Images of the HEK 293 cells and macrophages with the excitation wavelength of 340 nm and 380 nm were captured with a cooled Digital CMOS camera (ORCA-Flash 4.0, Hamamatsu Photonics K.K, Japan). The ratio of fluorescence intensity of the two wavelengths in each experiment was analyzed using MetaFluor (Molecular Devices). The Shutter speed and wavelength was controlled by Lambda DG-4 system (Sutter instrument Co., Novato, CA). Values from each of the experiments were normalized to the baseline ratio of 340/380 nm.
# Several SPM receptors have been identified such as ChemR23 for RvE1, GPR32 for RvD1, and ALX for lipoxin A. We transfected human cDNAs of ChemR23, GPR32, and ALX in HEK293 cells and checked Ca^2+ responses following the treatment of each SPM.
# GPR37 [1] = molecular target: T2, GPR37 (Homo sapiens, UniProt O15354); experiment: Ca2+ imaging (Fura-2AM) in HEK293 cells transfected with human GPR37 cDNA; type: cell-based; details: for effect on NPD1-induced iCa2+ increase: NPD1 30 nM, PTX 1 μg/mL 16 h before, thapsigargin 1 μM 3 min, EGTA 10 mM 3 min; for intracellular Ca2+ (iCa2+) increase: 3 min, GPR37-expressing HEK293 cells
# T2 construct: host or cells: HEK293 flip-in cells
# T2 sequence (O15354 27-613): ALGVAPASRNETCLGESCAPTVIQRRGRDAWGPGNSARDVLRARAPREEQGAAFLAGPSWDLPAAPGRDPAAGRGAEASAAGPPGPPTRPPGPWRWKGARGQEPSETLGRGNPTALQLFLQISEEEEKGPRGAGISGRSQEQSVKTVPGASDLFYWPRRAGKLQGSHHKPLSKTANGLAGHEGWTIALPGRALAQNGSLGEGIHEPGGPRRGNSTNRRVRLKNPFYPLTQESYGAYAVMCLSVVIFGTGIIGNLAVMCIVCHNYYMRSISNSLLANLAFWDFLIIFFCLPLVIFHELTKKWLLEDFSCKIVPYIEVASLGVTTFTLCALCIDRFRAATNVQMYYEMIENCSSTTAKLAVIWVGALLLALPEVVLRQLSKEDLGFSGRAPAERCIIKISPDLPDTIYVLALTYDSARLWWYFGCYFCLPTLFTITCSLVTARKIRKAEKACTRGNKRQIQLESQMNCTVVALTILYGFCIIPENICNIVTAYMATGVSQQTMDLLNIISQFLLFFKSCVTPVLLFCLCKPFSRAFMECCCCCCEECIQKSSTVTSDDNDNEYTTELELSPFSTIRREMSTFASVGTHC
# Protocol: as §2, §3
# In order to investigate how GPR37 regulates intracellular signaling, we conducted Ca^2+ imaging in HEK293 cells that overexpress GPR37. […] Thus, we hypothesized TX14 and SPM may activate the same receptors and elicit similar intracellular responses. We transfected HEK293 cells with human GPR37 cDNA, loaded these cells with Ca^2+ dye Fura-2AM, and stimulated them with TX14 and various SPMs, using ionomycin (2 μM) as a positive control for Ca^2+ influx (FIG. 2A, FIG. 2B, FIG. 2C).
# ChemR23 = molecular target: T3, ChemR23 (Homo sapiens, UniProt Q99788); experiment: Ca2+ imaging (Fura-2AM) in HEK293 cells transfected with ChemR23 cDNA; type: cell-based; details: 1 μM; HEK293 cells expressing ChemR23
# T3 construct: host or cells: HEK293 flip-in cells
# T3 sequence (Q99788 1-373): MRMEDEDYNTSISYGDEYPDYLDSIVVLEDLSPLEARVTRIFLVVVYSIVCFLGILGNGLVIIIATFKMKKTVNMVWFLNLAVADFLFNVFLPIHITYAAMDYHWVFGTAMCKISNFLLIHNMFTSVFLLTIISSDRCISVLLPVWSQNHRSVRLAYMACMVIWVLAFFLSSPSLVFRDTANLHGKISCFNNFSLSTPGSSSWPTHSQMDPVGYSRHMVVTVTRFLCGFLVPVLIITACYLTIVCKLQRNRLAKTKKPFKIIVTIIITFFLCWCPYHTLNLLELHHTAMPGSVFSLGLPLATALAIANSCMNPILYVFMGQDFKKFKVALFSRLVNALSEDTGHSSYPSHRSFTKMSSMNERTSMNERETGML
# Source text: as §1, §2
# as §3, with “Values from each of the experiments were normalized to the baseline ratio of 340/380 nm.” left out
# GPR32 = molecular target: T4, GPR32 (Homo sapiens, UniProt O75388); experiment: Ca2+ imaging (Fura-2AM) in HEK293 cells transfected with GPR32 cDNA; type: cell-based; details: 1 μM; HEK293 cells expressing GPR32
# T4 construct: host or cells: HEK293 flip-in cells
# Source text: as §1, §2
# as §3, with “Values from each of the experiments were normalized to the baseline ratio of 340/380 nm.” left out
# GPR37 [2] = experiment: Ca2+ imaging (Fluo-4AM) in peritoneal macrophages (pMΦ) from WT and Gpr37−/− mice; type: cell-based, mouse; details: GPR37-deficient pMΦ vs WT
# Protocol: (§4) Peritoneal macrophage culture. Peritoneal macrophages were collected by peritoneal lavage with 10 ml warm PBS containing of 1 mM EDTA. Cells were incubated in DMEM supplemented with 10% FBS at 37° C. for 2 h in petri dish and washed with PBS to eliminate non-adherent cells. The adherent cells were used as peritoneal macrophages. Peritoneal macrophages were used after 3 days of culture.
# as §3
# (§5) Next, we conducted GPR37-mediated Ca^2+ imaging in native pMΦ from WT and Gpr37^−/− mice using Fluo-4AM as a Ca^2+ indicator, since this dye works better than Fura-2AM for pMΦ. […] As compared to iCa^2+ increase in GPR37-expressing HEK293 cells, NPD1 trigger a slow-onset but more persistent Ca^2+ response in pMΦ (FIG. 2B and FIG. 2G). A relatively rapid calcium response in HEK293 cells may result from over-expression of GPR37. A sustained iCa^2+ increase in pMΦ may result from the expression of transient receptor potential (TRP) ion channels in these immune cells. It is noteworthy that macrophages express TRPV2 or TRPM2, which are involved in phagocytosis during bacterial infection. […] NPD1-triggered iCa^2+ increase in pMΦ is also Gi-dependent, since PTX blocked this increase (FIG. 2H). For comparison, ATP-evoked iCa^2+ increase was not altered in GPR37-deficient pMΦ (FIG. 2H).
# [3] = tested on: peritoneal macrophages (pMΦ); experiment: Phagocytosis assay with fluorescence-labeled zymosan particles in peritoneal macrophages; type: cell-based, mouse
# Protocol: as §4
# Phagocytosis assay. The phagocytosis assay was modified from a previously described protocol (Sommer C, and Kress M. NeurosciLett. 2004, 361, 184-187). pHrodo® Red Zymosan Bioparticles (diameter, 3 μm, Thermo scientific, Catalog: P35364) were rinsed and reconstituted in RPMI medium. Particles were centrifuged (1 min at 100 g) onto adherent peritoneal macrophages at a ratio of 10:1 to synchronize binding and internalization. After 30 min incubation at 37° C., non-adherent beads were removed with cold PBS and cells were fixed with 2% formalin. Four optic fields were photographed with epifluorescence microscopy. Quantification of zymosan particles ingested by MΦ was conducted on at least 200 macrophages/condition/well, and triplicates were included for statistical analysis.
# We investigated whether iCa^2+ increases would trigger phagocytosis of pathogens such as zymosan by macrophages. Zymosan is a well-studied pathogen and activates TLR2 to trigger inflammation and inflammatory pain in rodents after intraplantar injection. We tested phagocytosis in pMΦ using fluorescence-labeled zymosan particles.
# GPR37 [4] = molecular target: T5, GPR37 (Mus musculus, UniProt Q9QY42); experiment: Ca2+ imaging (Fluo-4AM) in peritoneal macrophages (pMΦ) from WT and Gpr37−/− mice; type: cell-based; details: PTX 1 μg/mL, 16 h; pMΦ
# T5 sequence (Q9QY42 27-600): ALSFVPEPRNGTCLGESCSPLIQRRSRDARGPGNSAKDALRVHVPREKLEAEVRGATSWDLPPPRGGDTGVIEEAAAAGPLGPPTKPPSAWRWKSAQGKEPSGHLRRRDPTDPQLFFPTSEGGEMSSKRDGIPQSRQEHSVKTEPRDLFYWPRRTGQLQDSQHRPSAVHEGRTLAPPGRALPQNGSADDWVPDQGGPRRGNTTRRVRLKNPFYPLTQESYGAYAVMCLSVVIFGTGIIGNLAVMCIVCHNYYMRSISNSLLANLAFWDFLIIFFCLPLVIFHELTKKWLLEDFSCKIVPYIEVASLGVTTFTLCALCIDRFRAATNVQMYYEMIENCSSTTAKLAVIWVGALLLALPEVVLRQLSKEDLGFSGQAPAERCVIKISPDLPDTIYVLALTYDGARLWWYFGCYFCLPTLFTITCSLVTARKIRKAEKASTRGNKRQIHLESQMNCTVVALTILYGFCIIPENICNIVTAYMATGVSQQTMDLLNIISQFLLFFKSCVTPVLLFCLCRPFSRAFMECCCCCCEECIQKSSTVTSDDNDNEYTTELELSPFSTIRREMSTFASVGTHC
# Protocol: as §4, §3, §5
# [5] = LY294002 50 μM, U0126 10 μM, PTX 1 μg/mL, BAPTA-AM 10 μM
# T4 sequence (O75388 whole entry): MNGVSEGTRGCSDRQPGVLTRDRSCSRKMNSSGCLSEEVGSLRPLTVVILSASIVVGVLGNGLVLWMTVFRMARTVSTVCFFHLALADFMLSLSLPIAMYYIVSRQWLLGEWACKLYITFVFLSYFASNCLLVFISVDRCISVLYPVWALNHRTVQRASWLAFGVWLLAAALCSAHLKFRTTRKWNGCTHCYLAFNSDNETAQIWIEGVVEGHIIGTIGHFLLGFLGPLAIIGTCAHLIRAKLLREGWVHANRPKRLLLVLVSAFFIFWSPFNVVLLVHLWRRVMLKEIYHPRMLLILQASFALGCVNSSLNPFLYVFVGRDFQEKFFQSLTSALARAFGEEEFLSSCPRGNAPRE
compound,measurement,setting,value
"Annexin 1: SPM ligand for ALX, from Anaspec (AMVSEFLKQAWFIENEEQEYVQTVK)",Ca2+ response,ALX; 100 nM,fail to evoke Ca^2+ responses
C/C=C(/C)C(=O)O[C@H]1C(C)=C2[C@H]([C@@H]1OC(=O)CCCCCCC)[C@@](C)(OC(C)=O)C[C@H](OC(=O)CCC)[C@@]1(O)[C@H]2OC(=O)[C@@]1(C)O [thapsigargin],effect on NPD1-induced iCa2+ increase,GPR37 [1],inhibited
O=C(O)CN(CCOCCOCCN(CC(=O)O)CC(=O)O)CC(=O)O [EGTA],effect on NPD1-induced iCa2+ increase,GPR37 [1],inhibited
CC/C=C\C/C=C\C/C=C\C/C=C\C/C=C\CCCC(=O)O [EPA],intracellular Ca2+ (iCa2+) increase,GPR37 [1]; 1 μM,"Neither did the precursors of these SPMs (DHA and EPA), at a much higher concentration (1 μM), evoked calcium responses"
same,Ca2+ response,ChemR23,fail to evoke Ca^2+ responses
same,Ca2+ response,GPR32,fail to evoke Ca^2+ responses
same,Ca2+ response,ALX; 1 μM,fail to evoke Ca^2+ responses
Nc1ncnc2c1ncn2[C@@H]1O[C@H](COP(=O)(O)OP(=O)(O)OP(=O)(O)O)[C@@H](O)[C@H]1O [ATP],ATP-evoked iCa2+ increase,GPR37 [2],not altered
CC/C=C\C[C@H](O)[C@H](O)/C=C/C=C/C=C\C=C\[C@@H](O)C/C=C\CCC(=O)O [RvD2],intracellular Ca2+ (iCa2+) increase,GPR37 [1]; 100 nM,failed to increase iCa^2+
CC(=O)OCOC(=O)CN(CC(=O)OCOC(C)=O)c1ccccc1OCCOc1ccccc1N(CC(=O)OCOC(C)=O)CC(=O)OCOC(C)=O [BAPTA-AM],effect on NPD1-induced iCa2+ increase,GPR37 [1],inhibited
same,effect on baseline phagocytosis,[3]; BAPTA-AM 10 μM,blocked
same,effect on NPD1-induced phagocytosis,[3]; [5],blocked
N#CC(=C(/N)Sc1ccccc1N)/C(C#N)=C(\N)Sc1ccccc1N [U0126],effect on NPD1-induced phagocytosis,[3],inhibited
pertussis toxin,effect on NPD1-induced iCa2+ increase,GPR37 [1],completely blocked
same,effect on NPD1-triggered iCa2+ increase,GPR37 [4],blocked
same,effect on NPD1-induced phagocytosis,[3]; [5],inhibited
C[C@H](CCC(=O)O)C[C@H](C)C[C@H](C)C(=O)/C=C(\O)[C@H](C)C[C@H](C)C/C=C/[C@@H](C)[C@@H](O)[C@@H](C)[C@@H](O)C[C@@H]1CC[C@@](C)([C@H]2CC[C@@](C)([C@@H](C)O)O2)O1 [ionomycin],phagocytosis,"[3]; 2 μM, both WT and Gpr37 KO mice",markedly increased phagocytosis
CCCCC[C@H](O)/C=C/C=C\C=C\C=C\[C@@H](O)[C@@H](O)CCCC(=O)O [lipoxin A1],intracellular Ca2+ (iCa2+) increase,GPR37 [1]; 100 nM,failed to increase iCa^2+
same,iCa2+ increase / Ca2+ response,ALX,failed to evoke Ca^2+ responses
